Measurements reported in US6639123B1, “Melanocortin-3 receptor deficient cells, non-human trangenic animals and methods of selecting compounds which regulate body weight” (Merck & Co., Inc., priority 1999, dated 2003).

Test system: male MC-3R^−/− and WT mice
Experiment: Peripheral MTII administration: 24-h food consumption
Settings: single intraperitoneal injection, 10 mg/kg, n=9, P<0.05
Method: Peripheral MTII administration—For seven consecutive days, individually-housed 23-25-week-old male MC-3R^−/− (n=9) and WT (n=9) mice received an intraperitoneal (ip) injection of a sterile 0.9% NaCl vehicle solution approximately 30 min before the onset of the dark phase of the light cycle. At the same time on the eighth consecutive day of the study, mice received an ip injection of MTII at a dose of 10 mg/kg delivered in vehicle. Body and food (Teklad 7012) weights were measured and recorded daily approximately 15 min prior to injection.

## MTII
MC-3R^−/− male mice
  reduction of food consumption over a 24-h period relative to a 2-day vehicle treatment baseline: 16.9±7.0%
WT male mice
  reduction of food consumption over a 24-h period relative to a 2-day vehicle treatment baseline: 11.1±4.3%
